{"source": "paper PMC12169475", "about": "(ACS Medicinal Chemistry Letters, 2025)", "key": {"[1]": {"tested_on": "A. baumannii NICD 15283 (C)", "parameters": "key: S - Susceptible; R - Resistant; I – Intermediate", "settings": "A. baumannii NICD 15283 clinical isolate; ref NICD; cited from earlier work"}, "[2]": {"tested_on": "E. cloacae NICD 16103 (C)", "parameters": "key: S - Susceptible; R - Resistant; I – Intermediate", "settings": "E. cloacae NICD 16103 clinical isolate; ref NICD; cited from earlier work"}, "E. coli ATCC 700928": {"tested_on": "E. coli ATCC 700928", "settings": "E. coli ATCC 700928; cation-adjusted MHB, ~5 x 10^5 CFU/mL, 37°C 20 h, OD600; n = 6", "protocol": "(§1) Antibacterial activity against a panel of standard laboratory strains and clinical isolates.\n(§2) Antimicrobial activity was evaluated against a panel of Gram-negative bacteria maintained by H3D, University of Cape Town, consisting of six laboratory reference strains and two clinical isolates. Briefly, bacterial colonies from an LB agar plate were picked and cultured in cation-adjusted Mueller Hinton broth (MHB) at 37°C with 180 rpm shaking, overnight. Cultures were […]\n(§3) back diluted to reach a starting optical density at 600 nm (OD600) of 0.1 and then diluted 100- […]\n(§4) media down polypropylene 96-well plates. Inoculum was added at a 1:1 ratio resulting in a […]\n(§5) (Suppl. Table S2). Plates were incubated at 37°C for 20 h and the OD600 determined. Minimum inhibition concentrations (MICs) were determined from a minimum of three biological repeats. […]\n(§6) the background absorbance.\n(§7) Caution! All bacterial work was conducted using appropriate biosafety level 2 (BSL-2) practices.\n(§8) Clinical isolates and reference strains were handled in a biosafety cabinet with proper PPE to prevent exposure and contamination."}, "[3]": {"tested_on": "K. pneumoniae ATCC BAA-1705", "settings": "K. pneumoniae ATCC BAA-1705; cation-adjusted MHB, ~5 x 10^5 CFU/mL, 37°C 20 h, OD600; n = 6", "protocol": "as §1, §2, §3, §4, §5, §6, §7, §8"}, "P. aeruginosa PAO1": {"tested_on": "P. aeruginosa PAO1", "settings": "P. aeruginosa PAO1; cation-adjusted MHB, ~5 x 10^5 CFU/mL, 37°C 20 h, OD600; n = 6", "protocol": "as §1, §2, §3, §4, §5, §6, §7, §8"}, "E. coli ATCC 25922": {"tested_on": "E. coli ATCC 25922", "settings": "E. coli ATCC 25922; cation-adjusted MHB, ~5 x 10^5 CFU/mL, 37°C 20 h, OD600; triplicate experiments in duplicate (n = 6)", "protocol": "as §1, §2, §3, §4, §5, §6, §7"}, "A. baumannii ATCC 19606": {"tested_on": "A. baumannii ATCC 19606", "settings": "A. baumannii ATCC 19606; cation-adjusted MHB, ~5 x 10^5 CFU/mL, 37°C 20 h, OD600; n = 6", "protocol": "as §1, §2, §3, §4, §5, §6, §7, §8"}, "[4]": {"tested_on": "A. baumannii NICD 15283 (C)", "settings": "A. baumannii NICD 15283 clinical isolate; cation-adjusted MHB, ~5 x 10^5 CFU/mL, 37°C 20 h, OD600; n = 6", "protocol": "as §1, §2, §3, §4, §5, §6, §7, §8"}, "E. cloacae ATCC 700323": {"tested_on": "E. cloacae ATCC 700323", "settings": "E. cloacae ATCC 700323; cation-adjusted MHB, ~5 x 10^5 CFU/mL, 37°C 20 h, OD600; n = 6", "protocol": "as §1, §2, §3, §4, §5, §6, §7, §8"}, "[5]": {"tested_on": "E. cloacae NICD 16103 (C)", "settings": "E. cloacae NICD 16103 clinical isolate; cation-adjusted MHB, ~5 x 10^5 CFU/mL, 37°C 20 h, OD600; n = 6", "protocol": "as §1, §2, §3, §4, §5, §6, §7, §8"}}}
{"molecule": "NCC[C@H](O)C(=O)N[C@@H]1C[C@H](N)[C@@H](O[C@H]2O[C@H](CN)[C@@H](O)[C@H](O)[C@H]2O)[C@H](O)[C@H]1O[C@H]1O[C@H](CO)[C@@H](O)[C@H](N)[C@H]1O", "note": "[Amikacin]", "values": [{"measurement": "Antimicrobial susceptibility profile", "setting": "[1]", "result": "R"}, {"measurement": "Antimicrobial susceptibility profile", "setting": "[2]", "result": "S"}]}
{"molecule": "O=C(O)c1cn(C2CC2)c2cc(N3CCNCC3)c(F)cc2c1=O", "note": "[Ciprofloxacin, reference compound]", "values": [{"measurement": "Modal MIC", "setting": "E. coli ATCC 700928", "result": 0.25, "unit": "µg/mL"}, {"measurement": "Modal MIC", "setting": "[3]", "result": "> 32", "unit": "µg/mL"}, {"measurement": "Modal MIC", "setting": "P. aeruginosa PAO1", "result": 0.5, "unit": "µg/mL"}]}
{"molecule": "CNC(C)C1CCC(N)C(OC2C(N)CC(N)C(OC3OCC(C)(O)C(NC)C3O)C2O)O1", "note": "(stereo not drawn) [Gentamicin, reference compound]", "values": [{"measurement": "Modal MIC", "setting": "E. coli ATCC 25922", "result": 0.5, "unit": "µg/mL"}, {"measurement": "Modal MIC", "setting": "A. baumannii ATCC 19606", "result": 32, "unit": "µg/mL"}, {"measurement": "Modal MIC", "setting": "[4]", "result": "16/32"}, {"measurement": "Modal MIC", "setting": "E. cloacae ATCC 700323", "result": 2, "unit": "µg/mL"}, {"measurement": "Modal MIC", "setting": "[5]", "result": "> 32", "unit": "µg/mL"}, {"measurement": "Modal MIC", "setting": "E. coli ATCC 700928", "result": 0.5, "unit": "µg/mL"}, {"measurement": "Modal MIC", "setting": "[3]", "result": "1/2"}, {"measurement": "Modal MIC", "setting": "P. aeruginosa PAO1", "result": 4, "unit": "µg/mL"}, {"measurement": "Antimicrobial susceptibility profile", "setting": "[1]", "result": "R"}, {"measurement": "Antimicrobial susceptibility profile", "setting": "[2]", "result": "R"}]}
{"molecule": "C[C@@H](O)[C@H]1C(=O)N2C(C(=O)O)=C(SCCN=CN)C[C@H]12", "note": "[Imipenem]", "values": [{"measurement": "Antimicrobial susceptibility profile", "setting": "[1]", "result": "R"}, {"measurement": "Antimicrobial susceptibility profile", "setting": "[2]", "result": "R"}]}
{"molecule": "CC[C@H](C)[C@H](NC(=O)CN)C(=O)NCC(=O)N[C@@H](C)C(=O)N[C@H](C(=O)N[C@@H](CC(C)C)C(=O)N[C@@H](CCCCN)C(=O)N[C@H](C(=O)N[C@@H](CC(C)C)C(=O)N[C@H](C(=O)N[C@H](C(=O)NCC(=O)N[C@@H](CC(C)C)C(=O)N1CCC[C@H]1C(=O)N[C@@H](C)C(=O)N[C@@H](CC(C)C)C(=O)N[C@H](C(=O)N[C@@H](CO)C(=O)N[C@@H](Cc1c[nH]c2ccccc12)C(=O)N[C@H](C(=O)N[C@@H](CCCCN)C(=O)N[C@@H](CCCNC(=N)N)C(=O)N[C@@H](CCCCN)C(=O)N[C@@H](CCCNC(=N)N)C(=O)N[C@@H](CCC(N)=O)C(=O)N[C@@H](CCC(N)=O)C(N)=O)[C@@H](C)CC)[C@@H](C)CC)[C@@H](C)O)[C@@H](C)O)C(C)C)C(C)C", "note": "[Melittin, reference compound]", "values": [{"measurement": "Modal MIC", "setting": "[4]", "result": 4, "unit": "µg/mL"}, {"measurement": "Modal MIC", "setting": "[5]", "result": 8, "unit": "µg/mL"}, {"measurement": "Modal MIC", "setting": "E. coli ATCC 700928", "result": 4, "unit": "µg/mL"}, {"measurement": "Modal MIC", "setting": "P. aeruginosa PAO1", "result": 2, "unit": "µg/mL"}]}
{"molecule": "C[C@@H](O)[C@H]1C(=O)N2C(C(=O)O)=C(S[C@@H]3CN[C@H](C(=O)N(C)C)C3)[C@H](C)[C@H]12", "note": "[Meropenem, reference compound]", "values": [{"measurement": "Modal MIC", "setting": "[4]", "result": 32, "unit": "µg/mL"}, {"measurement": "Modal MIC", "setting": "[5]", "result": 16, "unit": "µg/mL"}, {"measurement": "Antimicrobial susceptibility profile", "setting": "[1]", "result": "R"}, {"measurement": "Antimicrobial susceptibility profile", "setting": "[2]", "result": "R"}]}
{"molecule": "CC1(C)[C@H](C(=O)O)N2C(=O)C[C@H]2S1(=O)=O", "note": "[Sulbactam]", "values": [{"measurement": "Antimicrobial susceptibility profile", "setting": "[1]", "result": "I"}, {"measurement": "Antimicrobial susceptibility profile", "setting": "[2]", "result": "R"}]}
